Laboratory results as given in patent US5744487A, “Prolineamide derivatives” (Mitsubishi Chemical Corporation, priority 1994, dated 1998).

Experiments:
[1] = J. Med. Chem., 33, 1729 (1990); cited from earlier work
[2] = biological target: T1, bovine thrombin (Bos taurus, UniProt P00735); test: Antithrombin activity: coagulation inhibition of rat plasma; type: biochemical
T1 construct: purchased Mochida Co., Ltd
Procedure: (ii) The measuring method for coagulation inhibition of rat plasma The compound of the present invention is dissolved in water or saline to form a solution of a total volume of 0.1 ml. To the solution, 0.1 ml of rat plasma is added and the mixture is incubated at 37° C. for 30 seconds. Then, 0.1 ml of bovine thrombin (8 units/ml, Mochida Co., Ltd.) is added and the coagulation time is measured at 37° C. The concentration of the inhibitor (i.e., the compound of the present invention) which doubles the coagulation time that obtained in the absence of the inhibitor was determined as I50 (μm).

[3] = biological target: T2, bovine trypsin (Bos taurus, UniProt P00760); test: Antitrypsin activity: hydrolysis inhibition of synthetic substrate (S-2222); type: biochemical; settings: S-2222 substrate, pH 8.3, 37° C., absorbance 405 nm, read-out: Antitrypsin activity I50
T2 construct: purchased Sigma Co
T2 sequence (P00760 24-246): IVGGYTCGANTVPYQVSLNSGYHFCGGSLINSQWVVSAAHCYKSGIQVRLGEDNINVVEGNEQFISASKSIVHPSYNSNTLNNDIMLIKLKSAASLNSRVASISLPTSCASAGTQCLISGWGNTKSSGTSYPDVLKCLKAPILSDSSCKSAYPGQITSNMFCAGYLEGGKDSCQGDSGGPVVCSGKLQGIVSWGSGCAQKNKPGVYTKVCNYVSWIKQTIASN
Procedure: Determination of Antitrypsin activity
(i) The measuring method for hydrolysis inhibition of synthetic substrate (S-2222)
S-2222 (manufactured by Kabi Co.) is dissolved in a Tris hydrochloric acid (pH: 8.3) to prepare a S-2222-0.4M Tris hydrochloric acid solution having a concentration of 400 μm. To the solution (175 μl), 515 μl of a solution of a compound of the present invention is added. After incubating at 37° C. for one minute, 10 μl of a bovine trypsin solution (1 to 2 mg/ml, manufactured by Sigma Co.) is added. A hydrolysis reaction rate of the substrate is determined by measuring a change in absorbance of 405 nm at 37° C.

[4] = biological target: T1, bovine thrombin; test: Antithrombin activity: hydrolysis inhibition of synthetic substrate (S-2238); type: biochemical
Procedure: Determination of antithrombin activity
(i) The measuring method for hydrolysis inhibition of synthetic substrate (S-2238)
S-2238 (manufactured by Kabi Co.) is dissolved in a Tris hydrochloric acid buffer solution (pH: 8.3) to prepare a S-2238-0.4M Tris hydrochloric acid solution having a concentration of 80 μm. To 175 μl of the solution, an aqueous solution of a compound of the present invention (515 μl) is added. After incubating at 37° C. for one minute, 10 μl of a bovine thrombin solution (4.4 units/ml, manufactured by Mochida Co., Ltd.) is added. A hydrolysis reaction rate of the substrate is determined by measuring a change in absorbance of 405 nm at 37° C.

SMILES | IC50 [2] | IC50 [3] | IC50 [4] | stability in the living body [1]
N=C(N)NCCC[C@@H](C=O)NC(=O)[C@@H]1CCCN1C(=O)[C@H](N)Cc1ccccc1 [D-phenylalanyl-L-prolyl-L-arginal] | – | – | – | fairly unstable
CS(=O)(=O)N[C@@H](C(=O)N1CCC[C@H]1C(=O)NCc1ccc(C(=N)N)cc1)C1CCCCC1 [compound 1] | 46 nM | – | – | –
CC(C)(C)C[C@@H](NS(C)(=O)=O)C(=O)N1CCC[C@H]1C(=O)NCc1ccc(C(=N)N)cc1 [compound 2] | 30 nM | – | – | –
CS(=O)(=O)N[C@H](Cc1ccccc1)C(=O)N1CCC[C@H]1C(=O)NCc1ccc(C(=N)N)cc1 [compound 4] | 21 nM | 40 nM | 7.6 nM | –
CSCC[C@@H](NS(C)(=O)=O)C(=O)N1CCC[C@H]1C(=O)NCc1ccc(C(=N)N)cc1 [compound 5] | 48 nM | – | – | –
N=C(N)c1ccc(CNC(=O)[C@@H]2CCCN2C(=O)[C@@H](Cc2ccccc2)NC=O)cc1 [compound 6] | 56 nM | – | – | –
CCCC[C@@H](NS(C)(=O)=O)C(=O)N1CCC[C@H]1C(=O)NCc1ccc(C(=N)N)cc1 [compound 7] | 30 nM | – | – | –
COC(=O)c1ccc(CC[C@@H](NS(C)(=O)=O)C(=O)N2CCC[C@H]2C(=O)NCc2ccc(C(=N)N)cc2)cc1 [compound 8] | 122 nM | – | – | –
CS(=O)(=O)N[C@H](COc1cccc(C(=O)O)c1)C(=O)N1CCC[C@H]1C(=O)NCc1ccc(C(=N)N)cc1 [compound 9] | 110 nM | – | – | –
CS(=O)(=O)N[C@H](COc1ccccc1C(=O)OCc1ccccc1)C(=O)N1CCC[C@H]1C(=O)NCc1ccc(C(=N)N)cc1 [compound 10] | 170 nM | – | – | –
CCCCC[C@@H](NS(=O)(=O)CC(=O)O)C(=O)N1CCC[C@H]1C(=O)NCc1ccc(C(=N)N)cc1 [compound 12] | 83 nM | – | – | –
N=C(N)c1ccc(CNC(=O)[C@@H]2CCCN2C(=O)CCCc2ccccc2)cc1 [compound 13] | 590 nM | – | 720 nM | –
CCOC(=O)N[C@H](CC(C)(C)C)C(=O)N1CCC[C@H]1C(=O)NC[C@H]1CC[C@H](C(=N)N)CC1 [compound 15] | 38 nM | 2200 nM | 11 nM | –
CCOC(=O)N[C@H](CC1CCCCC1)C(=O)N1CCC[C@H]1C(=O)NC[C@H]1CC[C@H](C(=N)N)CC1 [compound 16] | – | 1700 nM | 21 nM | –
CC(C)OC(=O)N[C@H](CC(C)(C)C)C(=O)N1CCC[C@H]1C(=O)NC[C@H]1CC[C@H](C(=N)N)CC1 [compound 17] | 53 nM | 3200 nM | 15 nM | –
CC(C)C[C@@H](NS(C)(=O)=O)C(=O)N1CCC[C@H]1C(=O)NC[C@H]1CC[C@H](C(=N)N)CC1 [compound 19] | 31 nM | – | – | –
CS(=O)(=O)N[C@H](CC1CCCCC1)C(=O)N1CCC[C@H]1C(=O)NC[C@H]1CC[C@H](C(=N)N)CC1 [compound 20] | 28 nM | – | – | –
CC(C)OC(=O)N[C@@H](C(=O)N1CCC[C@H]1C(=O)NC[C@H]1CC[C@H](C(=N)N)CC1)C1CCCCC1 [compound 21] | – | 1000 nM | 21 nM | –
CCOC(=O)N[C@H](CC(CC)CC)C(=O)N1CCC[C@H]1C(=O)NC[C@H]1CC[C@H](C(=N)N)CC1 [compound 22] | – | 940 nM | 14 nM | –
CC(C)(C)C[C@@H](NC(=O)OC(C)(C)C)C(=O)N1CCC[C@H]1C(=O)NC[C@H]1CC[C@H](C(=N)N)CC1 [compound 23] | 58 nM | 3600 nM | 17 nM | –
NC(=NO)c1ccc(CNC(=O)[C@@H]2CCCN2C(=O)Cc2ccccc2)cc1 [compound 25] | > 300000 nM | – | – | –

Now from value to compound, other results behind:

IC50 [2] | IC50 [3] | IC50 [4] | SMILES | stability in the living body [1]
45 nM | 14000 nM | 130 nM | CS(=O)(=O)N[C@H](Cc1ccccc1)C(=O)N1CCC[C@H]1C(=O)NC[C@H]1CC[C@H](N)CC1 [compound 52] | –
59 nM | 1400 nM | 81 nM | CS(=O)(=O)N[C@@H](C(=O)N1CCC[C@H]1C(=O)NC[C@H]1CC[C@H](N)CC1)C1CCCCC1 [compound 53] | –
230 nM | – | – | N[C@H]1CC[C@H](CNC(=O)[C@@H]2CCCN2C(=O)[C@H](CCC(=O)O)NS(=O)(=O)c2ccccc2)CC1 [compound 54] | –
80 nM | 14000 nM | 130 nM | CC(C)OC(=O)N[C@H](CC(C)(C)C)C(=O)N1CCC[C@H]1C(=O)NC[C@H]1CC[C@H](N)CC1 [compound 56] | –
82 nM | – | – | CCOC(=O)N[C@H](Cc1ccccc1)C(=O)N1CCC[C@H]1C(=O)NC[C@H]1CC[C@H](N)CC1 [compound 57] | –
97 nM | – | – | N[C@H](Cc1ccccc1)C(=O)N1CCC[C@H]1C(=O)NC[C@H]1CC[C@H](N)CC1 [compound 58] | –
56 nM | – | – | N[C@H]1CC[C@H](CNC(=O)[C@@H]2CCCN2C(=O)[C@H](O)C2CCCCC2)CC1 [compound 61] | –
88 nM | – | – | N[C@H]1CC[C@H](CNC(=O)[C@@H]2CCCN2C(=O)[C@H](O)c2ccccc2)CC1 [compound 62] | –
130 nM | – | – | CCOC(=O)N[C@H](CC(C)(C)C)C(=O)N1CCC[C@H]1C(=O)NC[C@H]1CC[C@H](N)CC1 [compound 64] | –
81 nM | 20000 nM | 560 nM | CS(=O)(=O)N[C@H](Cc1ccccc1)C(=O)N1CCC[C@H]1C(=O)NC[C@H]1CC[C@H](NC(=N)N)CC1 [compound 67] | –
